From US10730826B2, “Ketone inhibitors of lysine gingipain” (CORTEXYME, INC., priority 2016, dated 2020)

Columns and labels:
lysine gingipain (Kgp) [1] = experiment: biochemical; format: biochemical, Porphyromonas gingivalis; conditions: as compared to reference compound 73
Experimental: (§1) The specific assay conditions were as follows. Buffer: pH=7.5, 100 mM Tris-HCl, 75 mM NaCl, 2.5 mM CaCl2), 10 mM cysteine, 1% DMSO after all additions. Protein: 0.1 nM Kgp, isolated from culture of Porphyromonas gingivalis, as described by Pike et al. (J. Biol. Chem. 1994, 269(1), 406), and Potempa and Nguyen (Current Protocols in Protein Science. 2007, 21.20.1-21.20.27). Fluorogenic substrate: 10 μM Z-His-Glu-Lys-MCA. Time=90 minutes. Temperature=37° C.
(§2) Further assays to measure the inhibitory activity of compounds of the present invention against Kgp and cathepsins B, H, K, L, and S were conducted as described in Example 66. The capacities of the compounds to inhibit the activity of cathepsins F, V, and Z were also measured.

Cathepsin B = Cathepsin B (Homo sapiens (Human), UniProt P07858); experiment: Cathepsin B inhibition assay; format: biochemical; conditions: Table 4; read-out: IC50 (nM) CatB
Experimental: (§3) The capacities of compounds of the present invention to inhibit the activity of cathepsins B, H, K, L, and S were measured in similar assays. Boc-Leu-Arg-Arg-AMC (20 μM) in sodium acetate buffer (50 mM, pH 5.5) containing DTT (1 mM) and EDTA (2 mM) was used for the Cathepsin B assay. L-Arg-AMC (20 μM) in sodium acetate buffer (50 mM, pH 5.5) containing DTT (1 mM) and EDTA (2 mM) was used for the Cathepsin H assay. Z-Phe-Arg-AMC (10 μM) in HEPES buffer (50 mM, pH 7.4) containing DTT (2.5 mM) and EDTA (1 mM) was used for the Cathepsin K assay. Z-Phe-Arg-AMC (20 μM) in sodium acetate buffer (50 mM, pH 5.5) containing DTT (1 mM) and EDTA (2 mM) was used for the Cathepsin L assay. Z-Leu-Arg-AMC (10 μM) in sodium acetate buffer (25 mM, pH 4.5) containing DTT (2.5 mM) and NaCl (50 mM) was used for the Cathepsin S assay. The capacities of the compounds to inhibit the activity of cathepsins F, V, and Z were also measured.
as §2

cathepsin F = cathepsin F (Homo sapiens (Human), UniProt Q9UBX1); experiment: Cathepsin F inhibition assay; format: biochemical; conditions: Table 4; read-out: IC50 (nM) CatF
Experimental: as §3, §2

Cathepsin L = Cathepsin L (Homo sapiens (Human), UniProt P07711); experiment: Cathepsin L inhibition assay; format: biochemical; conditions: Table 4; read-out: IC50 (nM) CatL
Experimental: as §3, §2

Cathepsin H = Cathepsin H (Homo sapiens (Human), UniProt P09668); experiment: Cathepsin H inhibition assay; format: biochemical; conditions: Table 4; read-out: IC50 (nM) CatH
Experimental: as §3, §2

cathepsin V = cathepsin V (Homo sapiens (Human), UniProt O60911); experiment: Cathepsin V inhibition assay; format: biochemical; conditions: Table 4; read-out: IC50 (nM) CatV
Experimental: as §3, §2

Cathepsin S = Cathepsin S (Homo sapiens (Human), UniProt P25774); experiment: Cathepsin S inhibition assay; format: biochemical; conditions: Table 4; read-out: IC50 (nM) CatS
Experimental: as §3, §2

lysine gingipain (Kgp) [2] = target: lysine gingipain (Kgp) (Porphyromonas gingivalis (Bacteroides gingivalis), UniProt P72194); experiment: biochemical; format: biochemical; conditions: IC50 (nM) Kgp
Experimental: as §1, §2

Cathepsin K = Cathepsin K (Homo sapiens (Human), UniProt P43235); experiment: Cathepsin K inhibition assay; format: biochemical; conditions: Table 4; read-out: IC50 (nM) CatK
Experimental: as §3, §2

[3] = Pharmacokinetics in male CD-1 mice dosed p.o.; format: in vivo; conditions: p.o. 10 mg/kg, compared to reference compound 73

Row | SMILES | selectivity for Kgp over endogenous cathepsins (lysine gingipain (Kgp) [1]) | IC50 (Cathepsin B) | IC50 (Cathepsin L) | IC50 (Cathepsin H) | IC50 (cathepsin V) | IC50 (Cathepsin S) | IC50 (lysine gingipain (Kgp) [2]; Table 4) | IC50 (Cathepsin K) | other results
1 | NCCCC[C@H](NC(=O)C1CCCC1)C(=O)COC(C(F)(F)F)C(F)(F)F [Compound 18, (S)—N-(7-amino-1-((1,1,1,3,3,3-hexafluoropropan-2-yl)oxy)-2-oxoheptan-3-yl)cyclopentanecarboxamide] | far more selective | – | – | – | – | – | – | – | –
2 | NCCCCC(NC(=O)C1CCCC1)C(=O)COC(C(F)(F)F)C(F)(F)F (stereo not shown) [Compound 18a] | – | > 10000 nM | > 10000 nM | > 10000 nM | > 10000 nM | > 10000 nM | 0.5 nM | > 10000 nM | IC50 (cathepsin F): > 10000 nM; IC50 (lysine gingipain (Kgp) [2]; Table 3): 0.5 nM
3 | COC(C)(C)C(=O)N[C@@H](CCCCN)C(=O)COc1c(F)ccc(F)c1F [Compound 47, (S)—N-(7-amino-2-oxo-1-(2,3,6-trifluorophenoxy)heptan-3-yl)-2-methoxy-2-methylpropanamide] | far more selective | – | – | – | – | – | – | – | concentrations in the brain and cerebrospinal fluid (CSF) [3]: increased concentrations in the brain and cerebrospinal fluid (CSF); oral availability [3]: improved oral availability; plasma concentrations [3]: increased plasma concentrations
4 | COC(C)(C)C(=O)NC(CCCCN)C(=O)COc1c(F)ccc(F)c1F (stereo not shown) [Compound 47a] | – | > 10000 nM | > 10000 nM | > 10000 nM | > 10000 nM | > 10000 nM | 0.06 nM | 9000 nM | IC50 (cathepsin F): > 10000 nM
5 | COC(C)(C)C(=O)N[C@@H](CCCCN)C(=O)COc1c(F)cccc1F [Compound 48, (S)—N-(7-amino-1-(2,6-difluorophenoxy)-2-oxoheptan-3-yl)-2-methoxy-2-methylpropanamide] | – | – | – | – | – | – | – | – | oral availability [3]: improved oral availability; plasma concentrations [3]: increased plasma concentrations
6 | NCCCC[C@H](NC(=O)C1CCCC1)C(=O)COc1ccon1 [Compound 49, (S)—N-(7-amino-1-(isoxazol-3-yloxy)-2-oxoheptan-3-yl)cyclopentanecarboxamide] | – | – | – | – | – | – | – | – | concentrations in the brain and cerebrospinal fluid (CSF) [3]: reduced concentrations in the brain and/or cerebrospinal fluid
7 | NCCCC[C@H](NC(=O)c1ccccn1)C(=O)COc1c(F)ccc(F)c1F [Compound 50, (S)—N-(7-amino-2-oxo-1-(2,3,6-trifluorophenoxy)heptan-3-yl)picolinamide] | increased selectivity | – | – | – | – | – | – | – | –
8 | NCCCCC(NC(=O)c1ccccn1)C(=O)COc1c(F)ccc(F)c1F (stereo not shown) [Compound 50a] | – | > 10000 nM | > 10000 nM | > 10000 nM | > 10000 nM | > 10000 nM | 0.09 nM | 1000 nM | IC50 (cathepsin F): > 10000 nM
9 | NCCCC[C@H](NC(=O)c1ccc(F)nc1)C(=O)COc1ccon1 [Compound 55, (S)—N-(7-amino-1-(isoxazol-3-yloxy)-2-oxoheptan-3-yl)-6-fluoronicotinamide] | far more selective | – | – | – | – | – | – | – | –
10 | NCCCCC(NC(=O)c1ccc(F)nc1)C(=O)COc1ccon1 (stereo not shown) [Compound 55a] | – | > 10000 nM | 6380 nM | > 10000 nM | > 10000 nM | > 10000 nM | 0.12 nM | 1000 nM | –
11 | COC(C)(C)C(=O)N[C@@H](CCCCN)C(=O)COC(C(F)(F)F)C(F)(F)F [Compound 69, (S)—N-(7-amino-1-((1,1,1,3,3,3-hexafluoropropan-2-yl)oxy)-2-oxoheptan-3-yl)-2-methoxy-2-methylpropanamide] | far more selective | – | – | – | – | – | – | – | concentrations in the brain and cerebrospinal fluid (CSF) [3]: increased concentrations in the brain and cerebrospinal fluid (CSF); oral availability [3]: improved oral availability; plasma concentrations [3]: increased plasma concentrations
